This passage reports EC50 results from patent US10961270B2, “Compounds and compositions for treating conditions associated with sting activity” (Innate Tumor Immunity, Inc., priority 2016, dated 2021).

Experiment [1] deals with STING pathway (IRF pathway reporter, THP1-Dual cells). In words: STING pathway activation, IRF pathway secreted luciferase (Lucia) reporter in THP1-Dual cells. Conditions: Quanti LUC luminescence, 24-hour and 48-hour plates prepared, duration not given, read-out: IRF3 (EC50 μM). The class given is cell-based. Here is the method:
(§1) STING pathway activation by the compounds described herein was measured using THP1-Dual™ cells. These cells are THP1 monocytes that have been modified to be reporters for the NF[…]B pathway (by inducing secreted embryonic alkaline phosphatase (SEAP) expression) and the IRF pathway (by inducing secreted luciferase (LUCIA)). Both of these pathways are activated by STING agonists in these cells.
(§2) THP1 Dual™ cells (obtained from Invivogen) are maintained in a cell growth medium that includes Roswell Park Memorial Institute medium (RPMI), 10% fetal calf serum (FCS), 100 U/ml Pen/Strep, 2 mM L-glut, 10 mM Hepes, and 1 mM sodium pyruvate. Prior to the assay, the cells were transferred to an assay medium that includes is RPMI, 5% FCS, 100 U/ml Pen/Strep, 2 mM L-glut, 10 mM Hepes, and 1 mM sodium pyruvate. Cells were then counted and evaluated for viability by trypan blue exclusion assay.
(§3) Compounds were dissolved in water or DMSO depending, for example, on their solubility in water or DMSO. The compounds are then diluted in the assay medium and plated into wells of a 384-well tissue culture plate in […] portions. Cells are then added in […] assay medium to result in a final cell concentration of 80,000 cells per well.
(§4) For each set of compounds, two plates were prepared: one plate that was subjected to a 24-hour assay duration, and one plate that was subjected to a 48-hour assay duration. The plates are incubated during their respective assay durations at 37° C., with 5% CO2.
(§5) To carry out the secreted embryonic alkaline phosphatase reporter, 10 µL of cell supernatant was mixed with 90 μL of QUANTI-Blue in a flat-bottom 384 well plate. The plates were incubated at 37′C for 1-2 hours. SEAP activity was measured using a spectrophotometer set at 620 nm. In the secreted luciferase (i.e., Lucia) assay, 10 µL of THP1-Blue™ WASG cell supernatant was plated, then 50 μL Quanti LUC Solution was added. Luminescence of the wells was then measured.

Experiment [2] deals with STING pathway (NFκB pathway reporter, THP1-Dual cells). As to the kind of experiment: STING pathway activation, NFκB pathway secreted embryonic alkaline phosphatase (SEAP) reporter in THP1-Dual cells. Conditions: QUANTI-Blue, 620 nm, 24-hour and 48-hour plates prepared, duration not given. The experiment is classed as cell-based. Here is the method: as §1, §2, §3, §4, §5

Like-named read-outs stand apart in the source and are kept apart here.

For `Nc1ncnc2c1ncn2[C@@H]1O[C@@H]2COP(=O)(S)N[C@H]3[C@@H](O)[C@H](n4cnc5c(N)ncnc54)O[C@@H]3COP(=O)(S)N[C@H]2[C@H]1O` (single isomer, unassigned) [Compound 74-0A1], the EC50 in experiment [1] and in experiment [2] was 1 to 10 µM throughout.
With “Diammonium [(1S,6S,8R,9R,10S,15S,17R,18R)-8-(2-amino-6-oxo-6,9-dihydro-1H-purin-9-yl)-17-(6-amino-9H-purin-9-yl)-9,18-dihydroxy-3,12-dioxo-12-sulfanidyl-4,7,13,16-tetraoxa-2,11-diaza-3λ^s,12λ^s-diphosphatricyclo[13.3.0.0^6,10]octadecan-3-yl]sulfanide [Compound 72-0A3]”, the 50% effective concentration (EC50) in experiment [1] was 1 to 10 µM; in experiment [2], less than 1 µM.
Take `Nc1nc2c(ncn2[C@@H]2O[C@@H]3COP(=O)(S)N[C@H]4[C@@H](O)[C@H](n5cnc6c(=O)[nH]c(N)nc65)O[C@@H]4COP(=O)(O)N[C@H]3[C@H]2O)c(=O)[nH]1` (single isomer, unassigned) [Compound 76-0A1]: the EC50 lay within 10 to 49 µM in experiment [1] (Homo sapiens, THP1-Dual) and 1 to 10 µM in experiment [2] (Homo sapiens, THP1-Dual).
Take `Nc1nc2c(ncn2[C@@H]2O[C@@H]3COP(=O)(S)N[C@H]4[C@@H](O)[C@H](n5cnc6c(=O)[nH]c(N)nc65)O[C@@H]4COP(=O)(S)N[C@H]3[C@H]2O)c(=O)[nH]1` (single isomer, unassigned) [Compound 76-0A2]: the EC50 in experiment [1] and in experiment [2] was 10 to 49 µM each time.
“Diammonium [(1S,6S,8R,9R,10S,15S,17R,18R)-8-(2-amino-6-oxo-6,9-dihydro-1H-purin-9-yl)-17-(6-amino-9H-purin-9-yl)-9,18-dihydroxy-3,12-dioxo-12-sulfanidyl-4,7,13,16-tetraoxa-2,11-diaza-3λ^s,12λ^s-diphosphatricyclo[13.3.0.0^6,10]octadecan-3-yl]sulfanide [Compound 72-0B1]”: the EC50 in experiment [1] lay in the range of 1 to 10 µM; in experiment [2], 50 to 100 µM.
`Nc1ncnc2c1ncn2[C@@H]1O[C@@H]2COP(=O)(O)N[C@H]3[C@@H](O)[C@H](n4cnc5c(N)ncnc54)O[C@@H]3COP(=O)(O)N[C@H]2[C@H]1O` [Compound 73, Diammonium (1S,6S,8R,9R,10S,15S,17R,18R)-8,17-bis(6-amino-9H-purin-9-yl)-9,18-dihydroxy-3,12-dioxo-4,7,13,16-tetraoxa-2,11-diaza-3λ^s,12λ^s-diphosphatricyclo[13.3.0.0^6,10]octadecane-3,12-bis(olate)]: the EC50 in experiment [1] (Homo sapiens, THP1-Dual) was in the range of 10 to 49 µM; in experiment [2] (Homo sapiens, THP1-Dual), 1 to 10 µM.
As for `Nc1nc2c(ncn2[C@@H]2O[C@@H]3COP(=O)(S)N[C@H]4[C@@H](O)[C@H](n5cnc6c(=O)[nH]c(N)nc65)O[C@@H]4COP(=O)(S)N[C@H]3[C@H]2O)c(=O)[nH]1` (single isomer, unassigned) [Compound 76-0B1], the values for the EC50 in experiment [1] and in experiment [2] were 10 to 49 µM and 50 to 100 µM, respectively.
The corresponding values for `Nc1nc2c(ncn2[C@@H]2O[C@@H]3COP(=O)(S)N[C@H]4[C@@H](O)[C@H](n5cnc6c(=O)[nH]c(N)nc65)O[C@@H]4COP(=O)(S)N[C@H]3[C@H]2O)c(=O)[nH]1` (single isomer, unassigned) [Compound 76-0A3] are 1 to 10 µM and less than 1 µM.
As for `Nc1ncnc2c1ncn2[C@@H]1O[C@@H]2COP(=O)(O)N[C@H]3[C@@H](F)[C@H](n4cnc5c(N)ncnc54)O[C@@H]3COP(=O)(O)N[C@H]2[C@H]1F` [Compound 78, Diammonium (1R,6S,8R,9R,10R,15S,17R,18R)-8,17-bis(6-amino-9H-purin-9-yl)-9,18-difluoro-3,12-dioxo-4,7,13,16-tetraoxa-2,11-diaza-3λ^s,12λ^s-diphosphatricyclo[13.3.0.0^6,10]octadecane-3,12-bis(olate)], the EC50 in experiment [1] (Homo sapiens, THP1-Dual) lay within 50 to 100 µM; in experiment [2] (Homo sapiens, THP1-Dual), 50 to 100 µM.
In the case of “Diammonium [(1S,6S,8R,9R,10S,15S,17R,18R)-8-(2-amino-6-oxo-6,9-dihydro-1H-purin-9-yl)-17-(6-amino-9H-purin-9-yl)-9,18-dihydroxy-3,12-dioxo-12-sulfanidyl-4,7,13,16-tetraoxa-2,11-diaza-3λ^s,12λ^s-diphosphatricyclo[13.3.0.0^6,10]octadecan-3-yl]sulfanide [Compound 72-0B2]”, the EC50 in experiment [1] and in experiment [2] was 10 to 49 µM each time.
On to “Diammonium [(1S,6S,8R,9R,10S,15S,17R,18R)-8-(2-amino-6-oxo-6,9-dihydro-1H-purin-9-yl)-17-(6-amino-9H-purin-9-yl)-9,18-dihydroxy-3,12-dioxo-12-sulfanidyl-4,7,13,16-tetraoxa-2,11-diaza-3λ^s,12λ^s-diphosphatricyclo[13.3.0.0^6,10]octadecan-3-yl]sulfanide [Compound 72-0A2]”, for which the concentration for a half-maximal effect (EC50) in experiment [1] and in experiment [2] was 1 to 10 µM in each case.
On to `Nc1ncnc2c1ncn2[C@@H]1O[C@@H]2CNP(=O)(S)O[C@H]3[C@@H](F)[C@H](n4cnc5c(N)ncnc54)O[C@@H]3CNP(=O)(S)O[C@H]2[C@H]1F` (stereo partly drawn) [Compound 77, Diammonium [(1R,6R,8R,9R,10R,15R,17R,18R)-8,17-bis(6-amino-9H-purin-9-yl)-9,18-difluoro-3,12-dioxo-12-sulfanidyl-2,7,11,16-tetraoxa-4,13-diaza-3λ^s,12λ^s-diphosphatricyclo[13.3.0.0^6,10]octadecan-3-yl]sulfanide], for which the EC50 in experiment [1] (Homo sapiens) and in experiment [2] (Homo sapiens) was 50 to 100 µM each time.
On to `Nc1nc2c(ncn2[C@@H]2O[C@@H]3COP(=O)(O)N[C@H]4[C@@H](O)[C@H](n5cnc6c(=O)[nH]c(N)nc65)O[C@@H]4COP(=O)(O)N[C@H]3[C@H]2O)c(=O)[nH]1` [Compound 75, Diammonium (1S,6S,8R,9R,10S,15S,17R,18R)-8,17-bis(2-amino-6-oxo-6,9-dihydro-1H-purin-9-yl)-9,18-dihydroxy-3,12-dioxo-4,7,13,16-tetraoxa-2,11-diaza-3λ^s,12λ^s-diphosphatricyclo[13.3.0.0^6,10]octadecane-3,12-bis(olate)], for which the EC50 in experiment [1] (Homo sapiens, THP1-Dual) lay in the range of 10 to 49 µM; in experiment [2] (Homo sapiens, THP1-Dual), 10 to 49 µM.
With `Nc1ncnc2c1ncn2[C@@H]1O[C@@H]2COP(=O)(S)N[C@H]3[C@@H](O)[C@H](n4cnc5c(N)ncnc54)O[C@@H]3COP(=O)(S)N[C@H]2[C@H]1O` (single isomer, unassigned) [Compound 74-0A2], the EC50 in experiment [1] was 1 to 10 µM; in experiment [2], less than 1 µM.
For `Nc1ncnc2c1ncn2[C@@H]1O[C@@H]2COP(=O)(S)N[C@H]3[C@@H](O)[C@H](n4cnc5c(N)ncnc54)O[C@@H]3COP(=O)(S)N[C@H]2[C@H]1O` (single isomer, unassigned) [Compound 74-0B1], in that order: 10 to 49 µM and 50 to 100 µM.
Turning to `Nc1ncnc2c1ncn2[C@@H]1O[C@@H]2COP(=O)(S)N[C@H]3[C@@H](O)[C@H](n4cnc5c(N)ncnc54)O[C@@H]3COP(=O)(O)N[C@H]2[C@H]1O` (single isomer, unassigned) [Compound 74-0B0], the EC50 in experiment [1] (Homo sapiens, THP1-Dual) was in the range of 10 to 49 µM; in experiment [2] (Homo sapiens, THP1-Dual), 10 to 49 µM.
